{"source": "patent US20090176817A1", "about": "“Method of Treatment of Diarrhea-Predominant Irritable Bowel Syndrome in a Subject” (priority 2005, published 2009)", "tested_on": "diarrhea-predominant IBS subjects", "assay": "Study S241.3.011: weekly diary questions on adequate relief", "assay_type": "in vivo, human", "conditions": "for Overall responder rate, adequate relief of IBS symptoms / Overall responder rate, adequate relief of abdominal pain/discomfort / Overall responder rate, adequate relief of abnormal bowel habits: observed case", "experimental": "Study S241.3.011 was a Phase III, double-blind, placebo-controlled, randomized, multinational study to investigate the safety and efficacy of 2 mg TID of cilansetron for a period of 12 weeks followed by a rerandomized, placebo-controlled four-week treatment period, in diarrhea-predominant IBS subjects. The study was conducted in six countries including the US. A total of 2115 subjects consented to participate, and 770 subjects were randomized. A total of 746 subjects were analyzed for efficacy and 755 subjects were analyzed for safety. Diagnosis and main criteria for inclusion were IBS subjects satisfying the Rome I criteria (1992); the diarrhea predominant sub-population of the Rome II criteria; and a minimum abdominal pain/discomfort, stool frequency and consistency determined during the run-in period. Subjects were treated with cilansetron 2 mg tablets given orally TID or matching placebo tablets given orally TID for 12 weeks followed by a rerandomized, placebo-controlled four-week treatment period.\nThe primary efficacy parameter was the number of months that a subject was a responder for IBS symptoms (abdominal pain, abdominal discomfort, abnormal bowel habits) over the 12-week treatment period. A responder for a month (monthly responder) was defined as a subject who answered the weekly question with “yes” at least twice for that month. The two main secondary efficacy parameters were the monthly responder rates based on the “adequate relief” questions regarding abdominal pain/discomfort and abnormal bowel habits during the 12-week treatment period. The overall response rate and responder rate for the weekly diary questions on adequate relief at each month and all months, the adequate relief rate, the number of subjects with adequate relief by week, daily diary questions, IBS-QOL scores, and the interruption of activities were also assessed. Safety was evaluated by physical examination, ECG, vital signs, laboratory evaluations, concomitant medications, and AEs.\nSubjects who were initially randomized to the cilansetron 2 mg TID group and rerandomized to placebo, will be referred to as the C/P treatment group; subjects initially randomized to the placebo group and rerandomized to placebo will be referred to as the P/P treatment group; the P/C and C/C treatment group nomenclature follow the same principle. Of the 591 subjects who completed the three-month treatment period, 576 subjects were rerandomized and thus divided into the following treatment groups: 150 subjects in the C/C treatment group, 140 subjects in the C/P treatment group, 136 subjects in the P/C treatment group, and 150 subjects in the P/P treatment group. Of the 576 subjects rerandomized, a higher percentage of subjects in the C/C treatment group (99%) completed the study compared with the C/P (95%), P/C (93%), and the P/P (95%) treatment groups.\nStudies S24 1.3.OO6, S24 1.3.0 1 1, and S24 1.3.009 used the following efficacy measurements: • The subjects answered the following three questions with “yes” or “no” using a phone diary at the end of each week: • a) During the last week, did you experience adequate relief of your IBS symptoms, such as abdominal pain, abdominal discomfort, abnormal bowel habits? • b) During the last week, did you experience adequate relief of your abdominal pain and/or discomfort? • c) During the last week, did you experience adequate relief of your abnormal bowel habits? • The subjects rated the following symptoms using the phone diary at the end of each day: • abdominal pain/discomfort (five-point scale); • stool consistency (seven-point Bristol Stool Scale); • stool frequency (number of bowel movements each day); • urgency (five-point scale); • straining (yes or no); • feeling of incomplete defecation (yes or no); • bloating or feeling of abdominal distension (five-point scale). • In Studies S241 A006 and S241.3.009, subjects completed the IBS-QOL Survey at Baseline (Day 1) and at the end of treatment. […]", "key": {"[1]": {"conditions": "Female subjects, three-month treatment period, monthly LOCF, ITT, 2 mg TID"}, "[2]": {"conditions": "Female subjects, three-month treatment period, ITT, 2 mg TID"}, "[3]": {"conditions": "Male subjects, three-month treatment period, monthly LOCF, ITT, 2 mg TID"}, "[4]": {"conditions": "Male subjects, three-month treatment period, ITT, 2 mg TID"}, "[5]": {"conditions": "RR Group C/C (cilansetron 2 mg TID, rerandomized to cilansetron)"}, "[6]": {"conditions": "RR Group C/P (cilansetron 2 mg TID, rerandomized to placebo)"}}}
{"smiles": "Cc1nccn1C[C@H]1CCc2c(c3cccc4c3n2CCC4)C1=O", "note": "[Cilansetron, (R)-(−)-4,5,6,8,9,10-hexahydro-10-[(2-methyl-1H-imidazol-1-yl)methyl]-11H-pyrido-[3,2,1-jk]-carbazol-11-one]", "values": [{"measurement": "Number of months a subject was a responder: Three months (Abnormal bowel habits)", "setting": "[1]", "value": "101 (39) n (%)"}, {"measurement": "Number of months a subject was a responder: Three months (IBS symptoms)", "setting": "[1]", "value": "96 (37) n (%)"}, {"measurement": "Number of months a subject was a responder: Two months (Abdominal pain/discomfort)", "setting": "[1]", "value": "57 (22) n (%)"}, {"measurement": "Number of months a subject was a responder: Two months (Abnormal bowel habits)", "setting": "[1]", "value": "48 (18) n (%)"}, {"measurement": "Number of months a subject was a responder: Two months (IBS symptoms)", "setting": "[1]", "value": "52 (20) n (%)"}, {"measurement": "Number of months a subject was a responder: Zero months (Abdominal pain/discomfort)", "setting": "[1]", "value": "74 (28) n (%)"}, {"measurement": "Number of months a subject was a responder: Zero months (Abnormal bowel habits)", "setting": "[1]", "value": "79 (30) n (%)"}, {"measurement": "Number of months a subject was a responder: Zero months (IBS symptoms)", "setting": "[1]", "value": "79 (30) n (%)"}, {"measurement": "Overall responder rate, adequate relief of IBS symptoms", "setting": "[2]", "value": "138 (53) n (%)"}, {"measurement": "Overall responder rate, adequate relief of abdominal pain/discomfort", "setting": "[2]", "value": "151 (58) n (%)"}, {"measurement": "Overall responder rate, adequate relief of abnormal bowel habits", "setting": "[2]", "value": "140 (53) n (%)"}, {"measurement": "Number of months a subject was a responder: One month (Abdominal pain/discomfort)", "setting": "[3]", "value": "15 (13) n (%)"}, {"measurement": "Number of months a subject was a responder: One month (Abnormal bowel habits)", "setting": "[3]", "value": "16 (14) n (%)"}, {"measurement": "Number of months a subject was a responder: One month (IBS symptoms)", "setting": "[3]", "value": "19 (17) n (%)"}, {"measurement": "Number of months a subject was a responder: Three months (Abdominal pain/discomfort)", "setting": "[3]", "value": "58 (50) n (%)"}, {"measurement": "Number of months a subject was a responder: Three months (Abnormal bowel habits)", "setting": "[3]", "value": "48 (42) n (%)"}, {"measurement": "Number of months a subject was a responder: Three months (IBS symptoms)", "setting": "[3]", "value": "52 (45) n (%)"}, {"measurement": "Number of months a subject was a responder: Two months (Abdominal pain/discomfort)", "setting": "[3]", "value": "15 (13) n (%)"}, {"measurement": "Number of months a subject was a responder: Two months (Abnormal bowel habits)", "setting": "[3]", "value": "18 (16) n (%)"}, {"measurement": "Number of months a subject was a responder: Two months (IBS symptoms)", "setting": "[3]", "value": "18 (16) n (%)"}, {"measurement": "Number of months a subject was a responder: Zero months (Abdominal pain/discomfort)", "setting": "[3]", "value": "27 (23) n (%)"}, {"measurement": "Number of months a subject was a responder: Zero months (Abnormal bowel habits)", "setting": "[3]", "value": "33 (29) n (%)"}, {"measurement": "Number of months a subject was a responder: Zero months (IBS symptoms)", "setting": "[3]", "value": "26 (23) n (%)"}, {"measurement": "Overall responder rate, adequate relief of IBS symptoms", "setting": "[4]", "value": "68 (59) n (%)"}, {"measurement": "Overall responder rate, adequate relief of abdominal pain/discomfort", "setting": "[4]", "value": "70 (61) n (%)"}, {"measurement": "Overall responder rate, adequate relief of abnormal bowel habits", "setting": "[4]", "value": "63 (55) n (%)"}, {"measurement": "Responder rate, abdominal pain/discomfort", "setting": "Peru", "value": 69, "unit": "%"}, {"measurement": "Responder rate, abnormal bowel habits", "setting": "Peru", "value": 75, "unit": "%"}, {"measurement": "Δ Month 4 vs Month 3, responder rate, Adequate Relief of Abdominal Pain/Discomfort", "setting": "RR Group C/C", "value": 0, "unit": "%"}, {"measurement": "Δ Month 4 vs Month 3, responder rate, Adequate Relief of Abnormal Bowel Habits", "setting": "RR Group C/C", "value": "+2%"}, {"measurement": "Δ Month 4 vs Month 3, responder rate, Adequate Relief of IBS Symptoms", "setting": "RR Group C/C", "value": "+3%"}, {"measurement": "Monthly responder rate, Adequate Relief of Abdominal Pain/Discomfort, Month 3", "setting": "[5]", "value": 70, "unit": "%"}, {"measurement": "Monthly responder rate, Adequate Relief of Abdominal Pain/Discomfort, Month 4", "setting": "[5]", "value": 70, "unit": "%"}, {"measurement": "Monthly responder rate, Adequate Relief of Abnormal Bowel Habits, Month 3", "setting": "[5]", "value": 68, "unit": "%"}, {"measurement": "Monthly responder rate, Adequate Relief of Abnormal Bowel Habits, Month 4", "setting": "[5]", "value": 70, "unit": "%"}, {"measurement": "Monthly responder rate, Adequate Relief of IBS Symptoms, Month 3", "setting": "[5]", "value": 66, "unit": "%"}, {"measurement": "Monthly responder rate, Adequate Relief of IBS Symptoms, Month 4", "setting": "[5]", "value": 69, "unit": "%"}, {"measurement": "Δ Month 4 vs Month 3, responder rate, Adequate Relief of Abdominal Pain/Discomfort", "setting": "RR Group C/P", "value": "−16", "unit": "%"}, {"measurement": "Δ Month 4 vs Month 3, responder rate, Adequate Relief of Abnormal Bowel Habits", "setting": "RR Group C/P", "value": "−18", "unit": "%"}, {"measurement": "Δ Month 4 vs Month 3, responder rate, Adequate Relief of IBS Symptoms", "setting": "RR Group C/P", "value": "−22", "unit": "%"}, {"measurement": "Monthly responder rate, Adequate Relief of Abdominal Pain/Discomfort, Month 3", "setting": "[6]", "value": 66, "unit": "%"}, {"measurement": "Monthly responder rate, Adequate Relief of Abdominal Pain/Discomfort, Month 4", "setting": "[6]", "value": 50, "unit": "%"}, {"measurement": "Monthly responder rate, Adequate Relief of Abnormal Bowel Habits, Month 3", "setting": "[6]", "value": 60, "unit": "%"}, {"measurement": "Monthly responder rate, Adequate Relief of Abnormal Bowel Habits, Month 4", "setting": "[6]", "value": 42, "unit": "%"}, {"measurement": "Monthly responder rate, Adequate Relief of IBS Symptoms, Month 3", "setting": "[6]", "value": 61, "unit": "%"}, {"measurement": "Monthly responder rate, Adequate Relief of IBS Symptoms, Month 4", "setting": "[6]", "value": 39, "unit": "%"}, {"measurement": "Overall responder rate, IBS symptoms", "setting": "entire four months, C/C group", "value": 66, "unit": "%"}, {"measurement": "Overall responder rate, abdominal pain/discomfort", "setting": "entire four months, C/C group", "value": 70, "unit": "%"}, {"measurement": "Overall responder rate, abnormal bowel habits", "setting": "entire four months, C/C group", "value": 69, "unit": "%"}, {"measurement": "Overall responder rate, IBS symptoms", "setting": "females", "value": 53, "unit": "%"}, {"measurement": "Overall responder rate, abdominal pain/discomfort", "setting": "females", "value": 58, "unit": "%"}, {"measurement": "Overall responder rate, abnormal bowel habits", "setting": "females", "value": 53, "unit": "%"}, {"measurement": "Overall responder rate, IBS symptoms", "setting": "males", "value": 59, "unit": "%"}, {"measurement": "Overall responder rate, abdominal pain/discomfort", "setting": "males", "value": 61, "unit": "%"}, {"measurement": "Overall responder rate, abnormal bowel habits", "setting": "males", "value": 55, "unit": "%"}, {"measurement": "Overall responder rate, IBS symptoms", "setting": "non-Caucasians", "value": 66, "unit": "%"}, {"measurement": "Overall responder rate, abdominal pain/discomfort", "setting": "non-Caucasians", "value": 66, "unit": "%"}, {"measurement": "Overall responder rate, abnormal bowel habits", "setting": "non-Caucasians", "value": 70, "unit": "%"}]}
